In US9902681B2, “N-3 immunoresolvents: structures and actions” (THE BRIGHAM AND WOMEN'S HOSPITAL, INC., priority 2013, dated 2018):

How the values were obtained:
neutrophil recruitment = test: Zymosan peritonitis, neutrophil recruitment into the peritoneum; design: species or system mouse; details: administered in vivo (as mixtures, FIG. 5); result in words
Method: FIG. 5. n-3 DPA immunoresolvents display potent anti-inflammatory actions in vivo. The indicated n-3 DPA-derived product mixtures were administered by intravenous injection 10 min prior to the intraperitoneal administration of zymosan (0.1 mg, 500 μl PBS) to 6-8-week-old male FvB mice. At 4 h, peritoneal exudates were collected and the (a) number of infiltrated neutrophils was assessed by light microscopy and flow cytometry. Exudate levels for the pro-inflammatory mediators (b) IL6 and (c) MCP-1 were determined by cytokine array. The ratio of RvD1n-3 DPA to RvD2n-3 DPA was ˜3:1 (A), the ratio of MaR1n-3 DPA to MaR2n-3 DPA was ˜4:1 (B); the ratio of RvD5n-3 DPA to PD1n-3 DPA was ˜9:1 (C). Results are mean±SEM. n=4 mice per group (*P<0.05; vs. vehicle group). Results are mean±SEM. n=4. *P<0.05, **P<0.01 vs. zymosan mice.
It was then determined whether these novel structures carried bioactivity.
Zymosan (0.1 mg) was injected intraperitoneally (i.p.) in 1 ml of sterile saline. Exudates were collected at 0, 4, 12 and 24 h post zymosan. Leukocyte numbers and differential counts in the peritoneal exudates were determined as in^16. In designated experiments, mice were administered intravenously (i.v): Vehicle (saline containing 0.1% EtOH), or the indicated mixture of n-3 DPA-derived products at 100 ng/mouse 5 min prior to i.p. zymosan administration (0.1 mg). After 4 h the exudates were collected and the number of extravasated neutrophils determined using Turks solution and flow cytometry as above.

[1] = test system: infiltrated leukocytes into the lungs / lung tissue damage; test: Murine hind limb ischemia reperfusion, second organ (lung) injury: histology and lung MPO; format: in vivo, mouse; details: i.v. 10 min prior to reperfusion; RvD1 500 ng (FIG. 1) or 0.5 ng (Methods); result in words
Method: (a) Structures of DHA and n-3 DPA. (b) Ischemia was induced by applying tourniquets to the hind limb of 6-8-week-old male FvB mice. After 1 h, tourniquets were removed and reperfusion ensued for 3 h. 10 min prior to reperfusion, vehicle (saline containing 0.1% EtOH), RvD1 (500 ng) or a mixture of n-3 DPA-derived products (see Methods for details) were administered intravenously. At the end of reperfusion, lungs were collected; (c) tissue histology by H&E staining (×200) and (d) MPO levels were assessed. (e) Blood was collected, incubated with rat anti-mouse Ly6G and rat anti-mouse CD41 antibodies and neutrophil leukocyte aggregates were assessed by flow cytometry. (f) Plasma prostanoid and (g) leukotriene levels were assessed by lipid mediator metabololipidomics. Results are mean±SEM. n=4 mice per group. (*P<0.05; vs. vehicle group). Results c are representative n=4. Results d-e are mean±SEM. n=4. *P<0.05, **P<0.01 vs. vehicle mice. […]
Mice were anesthetized by intraperitoneal injection of a mixture of […]. […] The frozen lungs were homogenized from individual mice, centrifuged and the tissue myeloperoxidase (MPO) levels were determined using a mouse MPO ELISA (R&D Systems.).

human neutrophils = test: Neutrophil chemotaxis towards IL-8 (ChemoTx); format: cell-based; details: 1 nM, 15 min, 37° C.; IL-8 100 ng/ml, 90 min
Method: FIG. 7. Reduction in human neutrophil chemotaxis, neutrophil-endothelia cell adhesion and stimulation of macrophage phagocytosis by n-3 DPA-derived immunoresolvents. (a) Left panel: micrographs depict PKH26-labeled neutrophils adherent to WGA-Alexafluor® 488-labeled HUVEC stimulated with TNF-α (10 ng/ml, 4 h, 37° C., 0.1% FCS) with or without n-3 DPA resolvins (1 nM, 15 min, 37° C., pH7.45; ×40 magnification). Right panel: Fluorescently labeled human neutrophils were incubated with vehicle (0.1% EtOH in PBS) or n-3 DPA products. These were then added to TNF-α-stimulated HUVEC and incubated for 30 min (37° C.), non-adherent cells were washed and extent of neutrophil adhesion assessed using a SpectraMax M3 Plate reader. […] After 60 min (37° C., pH7.45), the incubation was stopped, extracellular fluorescence quenched using trypan blue and phagocytosis assessed using a SpectraMax M3 Plate reader. […]
Peripheral blood neutrophils were obtained from healthy volunteers as in^17. […] 2.5×10^4 cells were then added to the upper chamber of the ChemoTx System (3 μm pore size filter) and chemotaxis towards IL8 (100 ng/ml) was assessed (90 min, 37° C., 5% CO2). The number of cells migrated into the bottom chamber was determined using Alama Blue following manufacturer's instructions on a Spectra Max M3 microplate reader (Molecular Devices Inc., Sunnyvale, Calif.).

[2] = test system: human monocyte-derived macrophages; test: Macrophage phagocytosis of fluorescently labeled zymosan; format: cell-based; details: 1 nM, 15 min, 37° C.; then labeled zymosan 60 min
Method: (§1) FIG. 7. Reduction in human neutrophil chemotaxis, neutrophil-endothelia cell adhesion and stimulation of macrophage phagocytosis by n-3 DPA-derived immunoresolvents. (a) Left panel: micrographs depict PKH26-labeled neutrophils adherent to WGA-Alexafluor® 488-labeled HUVEC stimulated with TNF-α (10 ng/ml, 4 h, 37° C., 0.1% FCS) with or without n-3 DPA resolvins (1 nM, 15 min, 37° C., pH7.45; ×40 magnification). Right panel: Fluorescently labeled human neutrophils were incubated with vehicle (0.1% EtOH in PBS) or n-3 DPA products. These were then added to TNF-α-stimulated HUVEC and incubated for 30 min (37° C.), non-adherent cells were washed and extent of neutrophil adhesion assessed using a SpectraMax M3 Plate reader. (b) Neutrophils were incubated with vehicle (0.1% EtOH in PBS) or n-3 DPA products (1 nM, 15 min, 37° C., pH7.45) prior to loading on ChemoTx chambers and assessing chemotaxis towards IL-8 (100 ng/ml, 90 min, 37° C., pH7.45). […] After 60 min (37° C., pH7.45), the incubation was stopped, extracellular fluorescence quenched using trypan blue and phagocytosis assessed using a SpectraMax M3 Plate reader. […]
Macrophages were prepared and phagocytosis was assessed as in^16. […] Phagocytosis was assessed using an M3 SpectraMax plate reader.

[3] = test system: human neutrophils adhering to TNF-α activated endothelial cells (HUVEC); test: Human neutrophil-endothelial cell adhesion; format: cell-based; details: 1 nM, 15 min, 37° C.; HUVEC stimulated with TNF-α 10 ng/ml, 4 h; vs vehicle
Method: as §1
HUVEC were purchased from Lonza and cultured to passage 4. […] The plates were then washed with DPBS to remove non-adherent cells and the number of adherent neutrophils assessed using a Spectra Max M3 microplate reader.

## CC/C=C\C/C=C\CC(O)C=CC=CC=CC(O)CCCCCC(=O)O (stereo not shown) [MaR1n-3 DPA, 7,14-dihydroxy-8,10,12,16Z,19Z-docosapentaenoic acid]
Neutrophil recruitment
  neutrophil infiltration in murine peritonitis: reduced neutrophil infiltration

## CC/C=C\C/C=C\CC(O)C(O)C=CC=C/C=C\CCCCCC(=O)O (stereo not shown) [MaR2n-3 DPA, 13,14-dihydroxy-7Z,9,11,16Z,19Z-docosapentaenoic acid]
Neutrophil recruitment
  neutrophil infiltration in murine peritonitis: reduced neutrophil infiltration

## CC/C=C\CC(O)C=CC=CC=CC(O)C/C=C\CCCCCC(=O)O (stereo not shown) [PD1n-3 DPA, 10,17-dihydroxy-7Z,11,13,15,19Z-docosapentaenoic acid]
Neutrophil recruitment
  neutrophil infiltration in murine peritonitis: reduced neutrophil infiltration

## CC/C=C\C[C@H](O)/C=C/C=C\C=C\C=C\[C@@H](O)[C@@H](O)C/C=C\CCC(=O)O [RvD1, 7S,8R,17S-trihydroxy-4Z,9E,11E,13Z,15E,19Z-docosahexaenoic acid]
[1]
  protection from secondary organ injury (lung tissue damage, infiltrated leukocytes): protection

## CC/C=C\CC(O)/C=C/C=CC=CC=CC(O)C(O)CCCCCC(=O)O (stereo not shown) [RvD1n-3 DPA, 7,8,17-trihydroxy-9,11,13,15E,19Z-docosapentaenoic acid]
Neutrophil recruitment
  neutrophil infiltration in murine peritonitis: reduced neutrophil infiltration

## CC/C=C\C[C@H](O)[C@H](O)/C=C/C=C/C=C\C=C\[C@@H](O)C/C=C\CCC(=O)O [RvD2, 7S,16R,17S-trihydroxy-4Z,8E,10Z,12E,14E,19Z-docosahexaenoic acid]
Human neutrophils
  reduction in neutrophil chemotaxis towards an IL-8 gradient: ~42%
[2]
  increase in macrophage phagocytosis (uptake) of zymosan: ~50%
[3]
  reduction in neutrophil adhesion to TNF-α activated endothelial cells: ~30%

## CC/C=C\CC(O)C(O)/C=C/C=CC=CC=CC(O)CCCCCC(=O)O (stereo not shown) [RvD2n-3 DPA, 7,16,17-trihydroxy-8,10,12,14E, 19Z-docosapentaenoic acid]
Neutrophil recruitment
  neutrophil infiltration in murine peritonitis: reduced neutrophil infiltration

## CC/C=C\C[C@H](O)/C=C/C=C\C/C=C\C=C\[C@@H](O)CCCCCC(=O)O [RvD5n-3 DPA, 7,17-trihydroxy-8E,10,13,15E,19Z-docosapentaenoic acid]
Neutrophil recruitment
  neutrophil infiltration in murine peritonitis: reduced neutrophil infiltration
